According to patent US20230374071A1, “COMPOSITIONS FOR INDUCING URINARY VOIDING AND DEFECATION” (Dignify Therapeutics, LLC, priority 2020, published 2023):
Entries after “also recorded” stand apart in the source; their conditions may differ. Starred links: 1 amine or outer side, 2 acyl side, 3 side chain; linkers in the order of their positions; H or OH if unused. Non-standard residues stand in square brackets, D forms with d. Residues, ends and D or L forms follow the SMILES beside them. No end group written: not given here. gc = gamma constrained Gly-(R-gamma-lactam)-Leu moiety, (S)-2-((R)-3-amino)-2-oxopyrrolidin-1-yl)-4-methylpentanoyl, between Val and the C-terminal residue, CC(C)C[C@@H](C(=O)[*:2])N1CC[C@@H](N[*:1])C1=O; Nle = CCCC[C@H](N)C(=O)O; βAla = NCCC(=O)O

T1: human NK2 receptor (hNK2R) (Homo sapiens, UniProt P21452)
T1 construct: expressed in transfected cells; host or cells: CHO (CHO-hNK2)
T1 sequence (P21452 1-398): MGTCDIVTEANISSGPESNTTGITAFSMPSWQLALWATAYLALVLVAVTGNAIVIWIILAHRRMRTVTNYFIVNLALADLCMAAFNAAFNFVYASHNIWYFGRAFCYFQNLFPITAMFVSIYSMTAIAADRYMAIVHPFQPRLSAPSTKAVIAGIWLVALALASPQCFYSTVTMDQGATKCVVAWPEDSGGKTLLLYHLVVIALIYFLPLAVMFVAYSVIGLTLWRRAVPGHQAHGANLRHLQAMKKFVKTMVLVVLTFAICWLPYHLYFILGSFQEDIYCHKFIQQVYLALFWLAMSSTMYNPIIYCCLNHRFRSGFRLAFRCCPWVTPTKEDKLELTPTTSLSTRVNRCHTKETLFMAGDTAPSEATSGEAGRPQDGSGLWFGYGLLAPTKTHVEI

T2: human neurokinin 2 receptor (human, UniProt P21452 1-398)
T2 sequence (looked up): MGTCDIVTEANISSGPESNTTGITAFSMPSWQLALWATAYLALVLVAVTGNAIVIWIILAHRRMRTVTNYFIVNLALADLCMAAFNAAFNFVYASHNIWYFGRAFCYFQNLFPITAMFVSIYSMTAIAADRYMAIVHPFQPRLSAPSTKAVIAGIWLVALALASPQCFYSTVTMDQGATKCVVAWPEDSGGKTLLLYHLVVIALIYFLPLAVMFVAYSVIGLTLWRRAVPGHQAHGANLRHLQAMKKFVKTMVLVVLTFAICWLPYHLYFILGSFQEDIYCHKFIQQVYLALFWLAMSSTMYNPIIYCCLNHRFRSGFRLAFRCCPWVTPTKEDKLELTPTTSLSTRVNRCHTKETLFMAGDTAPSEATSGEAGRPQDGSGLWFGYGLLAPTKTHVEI


Key:
[1] = Aqueous solubility of lyophilized peptide analogs (observed dissolution in Dulbecco's phosphate buffered saline and water); assay type: physicochemical; conditions: observed dissolution in both Dulbecco's phosphate buffered saline and water; 5 mg/mL was the maximum tested
Description: Peptide analogs of NKA were purified to ≥95% purity. […] Compounds A, B, H, and J (SEQ ID NO: 1, 2, 8, and 10) were considered to be aqueous insoluble (<0.1 mg/mL). *Aqueous solubilities of the lyophilized peptide analogs were determined based on the observed dissolution in both Dulbecco's phosphate buffered saline and water. gc=Gly-(R-gamma-lactam)-Leu or (S)-2-((R)-3-amino)-2-oxopyrrolidin-1-yl)-4-methylpantanoyl.

[2] = target: T1, human NK2 receptor (hNK2R); test: Intracellular calcium mobilization (Fluo-4 AM, FLIPR) in CHO cells expressing recombinant hNK2R; assay type: cell-based; conditions: for EC50: calcium mobilization, CHO-hNK2 cells, agonist potency, read-out: hNK2R pEC50 (converted); for selectivity for activation of hNK2Rs vs hNK1Rs: from ratios of EC50s; for calcium response at hNK2R: tested at concentrations up to 10 μM
Description: (§1) Intracellular Calcium Mobilization: The agonist efficacy of compounds A-J at recombinant hNK2R or hNK1Rs expressed in CHO cells was assessed by measuring intracellular calcium mobilization using the calcium-sensitive dye Fluo-4 AM (MOLECULAR PROBES, EUGENE, OR, USA) and a Fluorometric Imaging Plate Reader (FLIPR, MOLECULAR DEVICES, CA, USA). CHO-hNK1 and CHO-hNK2 cells were seeded into black walled clear-bottom 384-well plates) at a density of 10,000 and 15,000 cells per well in 50 μL culture media, respectively, and grown overnight at 37° C. in a humidified CO2-incubator. Cells were washed in washing buffer using a Microplate Washer BIOTEK 384 instrument, leaving 20 μL of buffer per well after the final aspiration. Cells were then incubated at 37° C. with the cytoplasmic Ca^2+ indicator Fluo-4 AM at 2 μM in assay buffer containing 2.5 mM probenecid and 0.02% Pluronic F-127 for 45-60 min (cell loading). Cells were then washed 3 times in washing buffer using a Microplate Washer BIOTEK 384 instrument, leaving 30 μL of buffer in each well after the last wash. Loaded cell plates were transferred to the FLIPR Tetra instrument and calcium responses monitored as described below. A dual read-out FLIPR protocol was used, allowing for characterization of both agonist and antagonist profiles. For quality control, in each compound plate the signal was monitored by evaluating the responses to the reference standards (NKA and Substance P).
(§2) Twelve concentrations of each of the compounds A-J were evaluated for their ability to increase intracellular calcium levels with respect to the agonist reference standard (NKA or Substance P), and the pEC50 value was calculated. […] Concentration response curves of compounds were run in duplicate on two different occasions from the same stock solutions. Test solutions were prepared from 10 mM stock solutions in DMSO and 1 μL of each solution was stamped into V-bottom assay plates containing 49 μL assay buffer. The final concentration of DMSO was 0.5% in each well.
(§3) The results of the intracellular calcium mobilization by in vitro activation of recombinant hNK2Rs or hNK1Rs expressed in CHO cells as described above for the 10 peptide analogs A-J, is shown in Table 3 below. In addition, FIGS. 3A-3C are exemplary graphs showing stimulation of [Ca^2+] response in CHO cells expressing human NK2 or NK1 receptors by Compound A, Compound B, and Compound G, respectively. In FIGS. 3A-3C, data are expressed as % of the maximal response to substance P for NK1 receptors, or NKA for NK2 receptors. Each data point is the mean±SD from duplicate determinations.

[3] = target: T3, human NK1 receptor (hNK1R) (Homo sapiens, UniProt P25103); test: Intracellular calcium mobilization (Fluo-4 AM, FLIPR) in CHO cells expressing recombinant hNK1R; assay type: cell-based; conditions: for EC50: calcium mobilization, CHO-hNK1 cells, agonist potency, read-out: hNK1R pEC50 (converted); for calcium response at hNK1R: tested at concentrations up to 10 μM
T3 construct: expressed in transfected cells; host or cells: CHO (CHO-hNK1)
T3 sequence (P25103 whole entry): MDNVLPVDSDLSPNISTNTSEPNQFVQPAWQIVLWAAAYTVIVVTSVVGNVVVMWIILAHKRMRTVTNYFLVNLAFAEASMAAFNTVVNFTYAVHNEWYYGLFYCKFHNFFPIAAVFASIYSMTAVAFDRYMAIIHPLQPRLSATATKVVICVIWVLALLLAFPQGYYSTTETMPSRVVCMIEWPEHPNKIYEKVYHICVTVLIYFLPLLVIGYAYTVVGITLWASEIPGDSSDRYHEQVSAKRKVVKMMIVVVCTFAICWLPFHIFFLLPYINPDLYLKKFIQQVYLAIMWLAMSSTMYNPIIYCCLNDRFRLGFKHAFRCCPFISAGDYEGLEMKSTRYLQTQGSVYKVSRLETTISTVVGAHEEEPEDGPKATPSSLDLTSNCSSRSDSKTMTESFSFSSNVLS
Description: as §1, §2, §3

[4] = target: T2, human neurokinin 2 receptor; test: cell-based or functional assay
[5] = target: T4, human neurokinin 1 receptor (human, UniProt P25103 1-407); test: cell-based or functional assay
T4 sequence (P25103 whole entry): as above

[6] = target: T2, human neurokinin 2 receptor; test: cell-based or functional assay; remark: listed apart in the source
[7] = target: T4, human neurokinin 1 receptor; test: cell-based or functional assay; remark: listed apart in the source

Molecule	solubility [1] [µg/mL]	EC50 [2] [µM]	selectivity for activation of hNK2Rs vs hNK1Rs [2]	EC50 [3] [µM]	hNK2R pEC50 (intracellular calcium mobilization, FLIPR, CHO cells) [6]	hNK1R pEC50 (intracellular calcium mobilization, FLIPR, CHO cells) [7]	other results
CCCC[C@H](NC(=O)[C@H](CC(C)C)NC(=O)CCNC(=O)[C@@H](NC(=O)[C@H](Cc1ccccc1)NC(=O)[C@H](CO)NC(=O)[C@H](CC(=O)O)NC(=O)[C@@H](N)CCCCN)C(C)C)C(N)=O [Compound J, Lys-Asp-Ser-Phe-Val-(β-Ala)-Leu-Nle-NH2] (H-KDSFV[βAla]L[Nle]-NH2; N-terminus assumed)	< 100	0.0132	> 20 fold	0.302			Aqueous solubility [1]: <100 µg/mL; Emax ([2]; calcium response, CHO cells, full agonists, read-out: maximal response at hNK2R compared to Neurokinin A): ≥ 85%; Emax ([3]; CHO, calcium response, CHO cells, full or partial agonists, read-out: maximal response at hNK1R compared to Substance P): ≥ 85%
CCCC[C@H](NC(=O)[C@H](CC(C)C)NC(=O)CCNC(=O)[C@@H](NC(=O)[C@H](Cc1ccccc1)NC(=O)[C@H](CO)NC(=O)[C@@H](N)CC(=O)O)C(C)C)C(N)=O [H, Asp-Ser-Phe-Val-(β-Ala)-Leu-Nle-NH2] (H-DSFV[βAla]L[Nle]-NH2; N-terminus assumed)	< 100	> 10	did not exhibit selectivity for hNK2Rs; also recorded: do not exhibit selectivity for hNK2Rs	> 10			Aqueous solubility [1]: <100 µg/mL; calcium response at hNK2R [2]: did not elicit a significant calcium response; also recorded: do not elicit a significant calcium response; calcium response at hNK1R [3]: did not elicit a significant calcium response; also recorded: do not elicit a significant calcium response
CSCC[C@H](NC(=O)[C@H](CC(C)C)NC(=O)CCNC(=O)[C@@H](NC(=O)[C@H](Cc1ccccc1)NC(=O)[C@H](CO)NC(=O)[C@H](CC(=O)O)NC(=O)[C@@H](N)CCCCN)C(C)C)C(N)=O [I, Lys-Asp-Ser-Phe-Val-(β-Ala)-Leu-Met-NH2] (H-KDSFV[βAla]LM-NH2; N-terminus assumed)	≥ 5000	> 10	did not exhibit selectivity for hNK2Rs; also recorded: do not exhibit selectivity for hNK2Rs	> 10			calcium response at hNK2R [2]: did not elicit a significant calcium response; also recorded: do not elicit a significant calcium response; calcium response at hNK1R [3]: did not elicit a significant calcium response; also recorded: do not elicit a significant calcium response
XDSFVM (gc = Gly-(R-gamma-lactam)-Leu, (S)-2-((R)-3-amino)-2-oxopyrrolidin-1-yl)-4-methylpantanoyl moiety, between Val and Met; C-terminal amide (Met-NH2)) [Compound A (Asp-Ser-Phe-Val-gc-Met-NH2)]					9.17	6.31	maximal calcium response [4]: ≥ 85 % maximal response compared to Neurokinin A; maximal calcium response [5]: ≥ 85 % maximal response compared to Substance P; NK2R/NK1R selectivity ratio [6]: 724 fold
DKFV[gc][Nle]-NH2 (N-terminus assumed; SMILES CCCC[C@H](NC(=O)[C@H](CC(C)C)N1CC[C@@H](NC(=O)[C@@H](NC(=O)[C@H](Cc2ccccc2)NC(=O)[C@H](CCCCN)NC(=O)[C@@H](N)CC(=O)O)C(C)C)C1=O)C(N)=O) [Compound D (Asp-Lys-Phe-Val-gc-Nle-NH2)]					8.44	6.32	maximal calcium response [4]: ≥ 85 % maximal response compared to Neurokinin A; maximal calcium response [5]: ≥ 85 % maximal response compared to Substance P; NK2R/NK1R selectivity ratio [6]: 132 fold
DSFV[βAla]L[Nle]-NH2 (N-terminus assumed; SMILES CCCC[C@H](NC(=O)[C@H](CC(C)C)NC(=O)CCNC(=O)[C@@H](NC(=O)[C@H](Cc1ccccc1)NC(=O)[C@H](CO)NC(=O)[C@@H](N)CC(=O)O)C(C)C)C(N)=O) [Compound H (Asp-Ser-Phe-Val-(β-Ala)-Leu-Nle-NH2)]					< 5	< 5	
KDSFV[βAla]LM-NH2 (N-terminus assumed; SMILES CSCC[C@H](NC(=O)[C@H](CC(C)C)NC(=O)CCNC(=O)[C@@H](NC(=O)[C@H](Cc1ccccc1)NC(=O)[C@H](CO)NC(=O)[C@H](CC(=O)O)NC(=O)[C@@H](N)CCCCN)C(C)C)C(N)=O) [Compound I (Lys-Asp-Ser-Phe-Val-(β-Ala)-Leu-Met-NH2)]					< 5	< 5	
